Measurements from the NIST ThermoML archive (doi:10.1016/j.jct.2019.05.017).
Numbers after ± are expanded uncertainties.

How the values were obtained:
[1] = 101.3 kPa, Liquid, Vibrating tube method
[2] = wn = mass fraction of the nth substance listed; settings: 101.3 kPa, Liquid, Vibrating tube method

| Compound | mass density ([1]; 303.15 K) [kg/m3] | mass density ([1]; 313.15 K) [kg/m3] | mass density ([1]; 293.15 K) [kg/m3] | mass density ([1]; 298.15 K) [kg/m3] | mass density ([1]; 308.15 K) [kg/m3] | mass density ([1]; 318.15 K) [kg/m3] | mass density ([1]; 323.15 K) [kg/m3] | mass density ([1]; 328.15 K) [kg/m3] | mass density ([1]; 333.15 K) [kg/m3] | further results |
| --- | --- | --- | --- | --- | --- | --- | --- | --- | --- | --- |
| NCCO [2-aminoethan-1-ol] | 1008.8 ± 2 | 1000.9 ± 2 | – | – | – | – | – | – | – | – |
| CCOCCO [2-ethoxyethan-1-ol] | 920.7 ± 2 | 911.5 ± 2 | 929.7 ± 2 | 925.2 ± 2 | 916.1 ± 2 | 906.8 ± 2 | 902.1 ± 2 | 897.4 ± 2 | 892.6 ± 2 | – |
| CCOCCO [2-ethoxyethan-1-ol] + NCCO | – | – | – | – | – | – | – | – | – | mass density ([2]; 293.15 K, w2 = 0.318): 960.2 ± 2 kg/m3; mass density ([2]; 298.15 K, w2 = 0.318): 956 ± 2 kg/m3; mass density ([2]; 303.15 K, w2 = 0.318): 951.7 ± 2 kg/m3; mass density ([2]; 308.15 K, w2 = 0.318): 947.4 ± 2 kg/m3; mass density ([2]; 313.15 K, w2 = 0.318): 943 ± 2 kg/m3; mass density ([2]; 318.15 K, w2 = 0.318): 938.7 ± 2 kg/m3; mass density ([2]; 323.15 K, w2 = 0.318): 934.3 ± 2 kg/m3; mass density ([2]; 328.15 K, w2 = 0.318): 929.8 ± 2 kg/m3; mass density ([2]; 333.15 K, w2 = 0.318): 925.4 ± 2 kg/m3 |
| COCCO [2-methoxyethan-1-ol] | 955.5 ± 2 | 946.2 ± 2 | 964.7 ± 2 | 960.1 ± 2 | 950.9 ± 2 | 941.5 ± 2 | 936.7 ± 2 | 932 ± 2 | 927.2 ± 2 | mass density ([1]; 283.15 K): 974.7 ± 2 kg/m3; mass density ([1]; 288.15 K): 969.9 ± 2 kg/m3 |
| COCCO [2-methoxyethan-1-ol] + NCCO | – | – | – | – | – | – | – | – | – | mass density ([2]; 293.15 K, w2 = 0.31): 985.5 ± 2 kg/m3; mass density ([2]; 298.15 K, w2 = 0.31): 981.1 ± 2 kg/m3; mass density ([2]; 303.15 K, w2 = 0.31): 976.8 ± 2 kg/m3; mass density ([2]; 308.15 K, w2 = 0.31): 972.5 ± 2 kg/m3; mass density ([2]; 313.15 K, w2 = 0.31): 968.1 ± 2 kg/m3; mass density ([2]; 318.15 K, w2 = 0.31): 963.7 ± 2 kg/m3; mass density ([2]; 323.15 K, w2 = 0.31): 959.2 ± 2 kg/m3; mass density ([2]; 328.15 K, w2 = 0.31): 954.8 ± 2 kg/m3; mass density ([2]; 333.15 K, w2 = 0.31): 950.3 ± 2 kg/m3 |
